# Laboratory results taken from patent US20040248275A1, “Engineered bacterial aggregates” (priority 2003, published 2004).
# B1: Lentil lectin (protein, UniProt P02870 31-210; P02870 218-269, looked up)
# Lectin beta chain: TETTSFSITKFSPDQKNLIFQGDGYTTKGKLTLTKAVKSTVGRALYSTPIHIWDRDTGNVANFVTSFTFVIDAPSSYNVADEFTFFIAPVDTKPQTGGGYLGVFNSKEYDKTSQTVAVEFDTFYNAAWDPSNKERHIGIDVNSIKSVNTKSWNLQNGERANVVIAFNAATNVLTVTLTYP
# Lectin alpha chain: VTSYTLNEVVPLKDVVPEWVRIGFSATTGAEFAAHEVHSWSFHSELGGTSSS
# What was measured:
# Test in all cases: Lectin aggregation of bacterial cells (microtitre wells, semi-quantitative score)
# Type in all cases: cell-based
# Set-up in all cases: key: Where the addition of lectins did not cause the aggregation of cells, a score of “0” was assigned; Lectins that caused cellular-aggregation to give small flocs in a turbid suspension were given a score of “+”; A score of “++” was given to lectin-cell aggregate mixes that resulted in large aggregates seen by eye in a turbid suspension; Lectins that caused cellular aggregation to give easily visible aggregates in a clear solution were given a score of “+++”
# Settings in all cases: cells O.D. 0.5 at 650 nm
# C. aquaticum = tested on: C. aquaticum
# Experimental: (§1) Assay approach: Six lectins were chosen to discover their suitability for the aggregation of different species of bacteria. These were Concanavalin A, Lentil lectin, Pseudomonas aeruginosa lectin, peanut lectin, Limulus polyphemus lectin and wheat germ lectin.
# (§2) The ability of the lectins to aggregate bacterial cells was studied by mixing cells at an O.D. of 0.5 at 650 nm with different lectins at different concentrations. The extent of aggregation was determined by a semi-quantitative approach. […] Lectins that caused cellular-aggregation to give small flocs in a turbid suspension were given a score of “+”. […] Lectins that caused cellular aggregation to give easily visible aggregates in a clear solution were given a score of “+++”.
# K. pneumoniae = tested on: K. pneumoniae
# Experimental: as §1, §2
# C. freundii = tested on: C. freundii
# Experimental: as §1, §2
# S. haemolyticus = tested on: S. haemolyticus
# Experimental: as §1, §2
# S. paucimobilis = tested on: S. paucimobilis
# Experimental: as §1, §2
# E. faecalis = tested on: E. faecalis
# Experimental: as §1, §2
# E. asburiae = tested on: E. asburiae
# Experimental: as §1, §2
# Pseudomonas sp. 2881 = tested on: Pseudomonas sp. 2881
# Experimental: as §1, §2
# E. coli S17-1 (K12) = tested on: E. coli S17-1 (K12)
# Experimental: as §1, §2
# A. hydrophila = tested on: A. hydrophila
# Experimental: as §1, §2
# E. coli C600 (K12) = tested on: E. coli C600 (K12)
# Experimental: as §1, §2
Molecule,extent of aggregation (score) (C. aquaticum; lectin 1 × 10^−1 mg/mL),extent of aggregation (score) (C. aquaticum; lectin 1 × 10^−2 mg/mL),extent of aggregation (score) (C. aquaticum; lectin 1 × 10^−3 mg/mL),extent of aggregation (score) (K. pneumoniae; lectin 1 × 10^−1 mg/mL),extent of aggregation (score) (K. pneumoniae; lectin 1 × 10^−2 mg/mL),extent of aggregation (score) (K. pneumoniae; lectin 1 × 10^−3 mg/mL),extent of aggregation (score) (C. freundii; lectin 1 × 10^−1 mg/mL),extent of aggregation (score) (C. freundii; lectin 1 × 10^−2 mg/mL),extent of aggregation (score) (C. freundii; lectin 1 × 10^−3 mg/mL),extent of aggregation (score) (S. haemolyticus; lectin 1 × 10^−1 mg/mL),extent of aggregation (score) (S. haemolyticus; lectin 1 × 10^−2 mg/mL),extent of aggregation (score) (S. haemolyticus; lectin 1 × 10^−3 mg/mL),extent of aggregation (score) (S. paucimobilis; lectin 1 × 10^−1 mg/mL),extent of aggregation (score) (S. paucimobilis; lectin 1 × 10^−2 mg/mL),extent of aggregation (score) (S. paucimobilis; lectin 1 × 10^−3 mg/mL),extent of aggregation (score) (E. faecalis; lectin 1 × 10^−1 mg/mL),extent of aggregation (score) (E. faecalis; lectin 1 × 10^−2 mg/mL),extent of aggregation (score) (E. faecalis; lectin 1 × 10^−3 mg/mL),extent of aggregation (score) (E. asburiae; lectin 1 × 10^−1 mg/mL),extent of aggregation (score) (E. asburiae; lectin 1 × 10^−2 mg/mL),other results
Concanavalin A,++,++,0,+++,+,+,+++,+,+,+++,++,+,+,++,0,0,+,++,+,+,extent of aggregation (score) (E. asburiae; lectin 1 × 10^−3 mg/mL): 0; extent of aggregation (score) (Pseudomonas sp. 2881; lectin 1 × 10^−1 mg/mL): +++; extent of aggregation (score) (Pseudomonas sp. 2881; lectin 1 × 10^−2 mg/mL): ++; extent of aggregation (score) (Pseudomonas sp. 2881; lectin 1 × 10^−3 mg/mL): ++; extent of aggregation (score) (E. coli S17-1 (K12); lectin 1 × 10^−1 mg/mL): +++; extent of aggregation (score) (E. coli S17-1 (K12); lectin 1 × 10^−2 mg/mL): +++; extent of aggregation (score) (E. coli S17-1 (K12); lectin 1 × 10^−3 mg/mL): +; extent of aggregation (score) (A. hydrophila; lectin 1 × 10^−1 mg/mL): +++; extent of aggregation (score) (A. hydrophila; lectin 1 × 10^−2 mg/mL): ++; extent of aggregation (score) (A. hydrophila; lectin 1 × 10^−3 mg/mL): ++; extent of aggregation (score) (E. coli C600 (K12); lectin 1 × 10^−1 mg/mL): +++; extent of aggregation (score) (E. coli C600 (K12); lectin 1 × 10^−2 mg/mL): +++; extent of aggregation (score) (E. coli C600 (K12); lectin 1 × 10^−3 mg/mL): +
B1,++,+,0,++,+,+,+++,+,+,+++,+,+,+,0,0,+,+,++,0,0,extent of aggregation (score) (E. asburiae; lectin 1 × 10^−3 mg/mL): 0; extent of aggregation (score) (Pseudomonas sp. 2881; lectin 1 × 10^−1 mg/mL): +++; extent of aggregation (score) (Pseudomonas sp. 2881; lectin 1 × 10^−2 mg/mL): ++; extent of aggregation (score) (Pseudomonas sp. 2881; lectin 1 × 10^−3 mg/mL): +; extent of aggregation (score) (E. coli S17-1 (K12); lectin 1 × 10^−1 mg/mL): +++; extent of aggregation (score) (E. coli S17-1 (K12); lectin 1 × 10^−2 mg/mL): ++; extent of aggregation (score) (E. coli S17-1 (K12); lectin 1 × 10^−3 mg/mL): +; extent of aggregation (score) (A. hydrophila; lectin 1 × 10^−1 mg/mL): +++; extent of aggregation (score) (A. hydrophila; lectin 1 × 10^−2 mg/mL): ++; extent of aggregation (score) (A. hydrophila; lectin 1 × 10^−3 mg/mL): ++; extent of aggregation (score) (E. coli C600 (K12); lectin 1 × 10^−1 mg/mL): +++; extent of aggregation (score) (E. coli C600 (K12); lectin 1 × 10^−2 mg/mL): ++; extent of aggregation (score) (E. coli C600 (K12); lectin 1 × 10^−3 mg/mL): +
